Entries after “also recorded” stand apart in the source; their conditions may differ.
Columns and labels:
hippocampal slices = assay: Field potential recording of epileptiform activity in hippocampal slices (CA3 pyramidal layer); assay type: cell-based, mouse
[1] = tested on: KA induced neonatal seizure; assay: KA-induced neonatal seizure, in vivo EEG recording; set-up: species or system rat
Description: For example, neonatal rats were administered gluconate to determine the effect on in vivo epileptic seizures in neonatal and adult animals. […] FIGS. 14A and 14B; Dzhala et al., “NKCC1 transporter facilitates seizures in the developing brain” Nature Medicine 11:1205-1213 (2005). […] FIGS. 14C and 14D.
(§1) To test the in vivo anti-epilepsy effects of gluconate in neonatal and adult rodents, P8-12 Sprague-Dawley rats or 2-month old male C57BL/6 mice were deeply anesthetized with pentobarbital sodium (50 mg/kg for neonatal rat and 100 mg/kg for adult mice, intraperitoneal injection). Two stainless steel screws (1 mm in diameter) were inserted in the skull above the cortex as EEG recording electrodes, one ground electrode as well as one reference electrode were located +1.8 mm anterior to bregma, ±0.5 mm lateral to the midline, and 1 mm below the cortical surface. All electrodes were attached to a micro-connector and fixed onto the skull with dental cement. After surgery, neonatal rats were returned to their mothers and allowed to recover for 2 days prior to subsequent EEG recording. The adult mice were single housed in order to prevent damage of the implanted electrodes and allowed to recover at least 5 days before EEG recording.
The baseline of EEG was recorded for 0.5-1 hr to allow the animal to adapt to the environment. Kainic acid (2 mg/kg) was administered intraperitoneally (i.p.) for neonatal epilepsy induction. D-gluconic acid sodium salt (2 g/kg) or 0.9% saline was injected i.p. 10 min after KA administration. Pentylenetetrazol (PTZ) was administered intraperitoneally for inducing a stable epileptic burst activity in adult mice, and D-gluconic acid sodium salt (1 g/kg and 2 g/kg) or 0.9% saline was injected i.p. 10 min before PTZ administration. Epileptiform activity was monitored for 1 hr after PTZ injection. Qian et al., “Epileptiform response of CA1 neurones to convulsant stimulation by cyclothiazide, kainic acid and pentylenetetrazol in anaesthetized rats” Seizure 20:312-319 (2011). After the experiment, animals were injected with diazepam to protect the animals from recurrent epilepsy.
Power was calculated in 1-min time windows by integrating the power of dominant frequency bands from 1 to 100 Hz (EEG band).

[2] = tested on: PTZ-induced epileptic seizures; assay: PTZ-induced epileptiform activity in adult mice, EEG recording; assay type: in vivo, mouse; conditions: PTZ 50 mg/kg i.p.
Description: as §1
The baseline of EEG was recorded for 0.5-1 hr to allow the animal to adapt to the environment. Kainic acid (2 mg/kg) was administered intraperitoneally (i.p.) for neonatal epilepsy induction. D-gluconic acid sodium salt (2 g/kg) or 0.9% saline was injected i.p. 10 min after KA administration. […] Epileptiform activity was monitored for 1 hr after PTZ injection. […]
Adult EEG signal were analyzed by spike 2 software (an analysis program for CED 1401, Cambridge, UK). […]

[3] = tested on: GABAA-R reversal potential (EGABA); assay: Gramicidin-perforated whole-cell recording of GABAA-R reversal potential (EGABA) in CA3 pyramidal neurons; assay type: cell-based, mouse
Description: To further test this idea, the GABAA-R reversal potential (EGABA), which governs GABA excitatory versus inhibitory function, was directly measured using gramicidin-perforated whole-cell recordings in neonatal mouse brain slices (e.g., P8-P9). As expected, epileptiform activity induced a large depolarizing shift in EGABA after treating hippocampal slices with 0 Mg^2+ aCSF for 1 h (aCSF: −59.2±2.0 mV, n=13; 0 Mg^2+: −48.2±1.1 mV, n=10). FIG. 16D. Treatment with bumetanide (Bum, 10 μM), a specific blocker for NKCC1 at low concentrations, induced a hyperpolarizing shift in EGABA (blue line) as compared to a control EGABA (dashed line). […]. […] Kaila et al., “Cation-chloride cotransporters in neuronal development, plasticity and disease” Nature Reviews. Neuroscience 15:637-654 (2014); Dzhala et al., “NKCC1 transporter facilitates seizures in the developing brain” Nature Medicine 11:1205-1213 (2005); and Loscher et al., “Cation-chloride cotransporters NKCC1 and KCC2 as potential targets for novel antiepileptic and antiepileptogenic treatments” Neuropharmacology 69:62-74 (2013). […] FIG. 16E, yellow line; Bum, −68.0±1.7 mV (n=9); 0 Mg^2++Bum, −50.2±1.4 mV (n=9); (p<0.002).

[4] = tested on: GABA-induced neuronal activity; assay: Cell-attached recording of spike firing elicited by isoguvacine in CA3 pyramidal neurons; assay type: cell-based, mouse; conditions: P8-9, isoguvacine 10 μM, 30 s
Description: Besides EGABA, the effects of different drugs on GABA-induced neuronal activity during epileptogenesis were investigated in neonatal animals (e.g., P8-9). To accurately measure GABA-induced neuronal activity, cell-attached recordings monitored spike firing elicited by local application of the GABAA-R agonist isoguvacine (10 μM, 30 s). Tyzio et al., “Maternal oxytocin triggers a transient inhibitory switch in GABA signaling in the fetal brain during delivery” Science 314:1788-1792 (2006). […] FIG. 16K, control, (n=32). […] FIG. 16K, 0 Mg^2+ (n=19). […] FIG. 16K; 0 Mg^2++Bum (n=19); and 0 Mg^2++VU (n=21). […] FIG. 16K; 0 Mg^2++NaGcA (n=18).

[5] = tested on: KA induced neonatal seizure; assay: KA-induced neonatal seizure, in vivo EEG recording; conditions: NaGcA 2 g/kg i.p. about 1 hr after KA, P10-12 rat; sodium salt
[6] = 0 Mg2+ aCSF, WT slices P8-12 pre-treated with 20 mM NaGcA

O=C([O-])[C@H](O)[C@@H](O)[C@H](O)[C@H](O)CO.[Na+] [NaGcA, D-gluconic acid sodium salt] was tested, and the “reduction of average power of epileptic activity” value (shortened to “reduction … of epileptic activity”) (hippocampal slices; 0 Mg2+ aCSF, 20 mM NaGcA, P6-8) was 59.6±4.3%, the “reduction … of epileptic activity” value (hippocampal slices; 0 Mg2+ aCSF, 20 mM NaGcA, P10-12) was 62.1±3.8% and the “reduction … of epileptic activity” value (hippocampal slices; 0 Mg2+ aCSF, 20 mM NaGcA, P21-33) was 23.8±4.1%. For the same compound, the burst latency (hippocampal slices; [6]) was “significantly prolonged”, the total burst activity (hippocampal slices; [6]) was “significantly reduced” and the “epileptic activity induced by 4-AP” value (hippocampal slices; 50 μM 4-AP, neonatal slices, 20 mM NaGcA, sodium salt) was “significantly reduced; also recorded: attenuated”. The “epileptiform activity induced by 0 Mg2+ aCSF, neonatal slices” value (hippocampal slices; 20 mM NaGcA, P6-12, sodium salt) was “strong inhibition; also recorded: strong efficacy; also recorded: dramatically reduced; also recorded: potent anti-epileptic effect; also recorded: inhibited”, the “epileptiform activity induced by 0 Mg2+ aCSF, older animals” value (hippocampal slices; 20 mM NaGcA, P21-33 (P26), sodium salt) was “modest effect; also recorded: much less inhibition; also recorded: much smaller; also recorded: moderate anti-epileptic discharges effect; also recorded: less effect” and the “reduction of the power amplitude” value (hippocampal slices; 4-AP (50 μM) model, neonatal slices, 20 mM NaGcA) was 70.2±5.3%. The “reduction of the power amplitude” value (hippocampal slices; high K+ (8.5 mM) model, neonatal slices, 20 mM NaGcA) was 70.8±4.9%, the “epileptic burst activity in high K+ model” value (hippocampal slices; high K+ aCSF (8.5 mM), neonatal slices, 20 mM NaGcA, sodium salt) was “remarkably suppressed; also recorded: blocked; also recorded: dramatically reduced” and the “epileptic seizure (burst) activity in EEG” value ([1]; P10-12, KA 2 mg/kg i.p., drug i.p. 10 min after KA: NaGcA 2 g/kg, phenobarbital 25 mg/kg, bumetanide 2 mg/kg, sodium salt) was “significantly inhibited; also recorded: potently inhibited; also recorded: essentially abolished; also recorded: no robust burst discharges”. The “average power of epileptic activity induced by KA, lowering” value ([1]; P10-12, NaGcA 2 g/kg i.p. vs saline, 1 min time window) was 70%, the “reduction of relative EEG power” value ([1]; last 30 min of a 2-hr recording period after KA injection, neonatal) was 72.3% and the “epileptic burst activity induced by PTZ” value [2] was “did not suppress the epileptic burst activity as effective”. For the same compound, the “latency of epileptiform spikes or bursts induced by PTZ” value ([2]; NaGcA 1 and 2 g/kg, sodium salt) was “prolonging the latency; also recorded: prolonged”, the “EGABA in 0 Mg2+ aCSF in CLC-3 KO mice” value ([3]; CLC-3 KO mice, application of NaGcA) was −56.6±2.4 mV and the “positive EGABA shift induced by 0 Mg2+ aCSF” value ([3]; neonatal CA3 neurons) was “completely abolishes”. For the same compound, the “EGABA in 0 Mg2+ aCSF” value ([3]; neonatal P8-P9, 0 Mg2+ aCSF, bumetanide 10 μM, VU0240551 10 μM, NaGcA 20 mM) was −59.3±1.7 mV, the “EGABA in normal aCSF” value ([3]; neonatal P8-P9, bumetanide 10 μM, VU0240551 10 μM, NaGcA 20 mM) was −60.3±0.9 mV and the “spike activity elicited by isoguvacine after 0 Mg2+ treatment” value [4] was “essentially abolished”. For the same compound, the “stable epileptic activity induced by KA (acute effect)” value [5] was “gradually reduced; also recorded: significantly reduced; also recorded: still suppressed seizure activity”.

Source: US11666640B2, “Glucose oxidase compositions as a neonate anticonvulsant” (PENN STATE RESEARCH FOUNDATION, priority 2018, dated 2023)
